# Reference: US20150119247A1, “Composition and Method for Stress Mitigation in Plants” (Stoller Enterprises, Inc., priority 2011, published 2015)
# Key:
# Assay type in all cases: in vivo
# [1] = system: field-grown beans (i.e., lima beans); assay: Lima bean field yield, Gustine, CA, 2010; details: aqueous kinetin solution applied to foliage just prior to flowering at one pint per acre or two pints per acre; up to approx. 35 degrees Celsius
# Procedure: In this example, the effect of the plant growth regulator cytokinin, specifically kinetin, applied at the beginning of flowering and two to four weeks thereafter to field-grown beans (i.e., lima beans) in Gustine, Calif. was observed. Growing temperatures up to approximately 35 degrees Celsius were recorded. […] The difference of “t” test of 5% is significant.
# field-grown corn crops = assay: Field-grown corn treated before the reproductive stage, Weslaco, Tex.: yield and seed size
# Source text: In this example, the effect of the plant growth regulator cytokinin, specifically kinetin, and applied at various times before the reproductive stages of growth, was observed. In Table 2, V7, V10, V13, and V16 refer to stages of growth of the corn plant. V7 refers to the growth stage where the collar of the seventh leaf is visible, V10 refers to the growth stage where the collar of the tenth leaf is visible, V13 refers to the growth stage where the collar of the thirteenth leaf is visible, and V16 refers to the growth stage where the collar of the sixteenth leaf is visible. V16 is also just prior to the reproductive stage of growth. The corn crops were grown in Weslaco, Tex. The water levels were either none (i.e., simply rain referred to as dryland), or drip through a “drip tape” (i.e., drip irrigation whereby sufficient water was applied for more optimal growth of the crop). Results are given for yield (measured in bushels per acre), and the weight of the seed (measured in grams per 1,000 kernels). T tests indicate whether there were differences.
# Arabidopsis thaliana = assay: High temperature seed/silique development, first experiment (FIG. 1)
# Source text: These experiments employed the model crop plant, Arabidopsis thaliana, whose genome was mapped as early as the year 2000. To ensure uniformity, the tested plants were selected such that they were in the beginning stages of flowering and had balanced numbers of flowers across groups. The control agent as well as all tested agents were applied in a water solution containing 0.01% Silwet® super spreader (obtained from General Electric) to the leaves and flowers (i.e., foliage) of the tested plants. […] The third and fourth agents tested consisted of 6-benzyl adenine (6-BA) and kinetin (KIN)—both cytokinins—each applied at the rate of 100 μg/1 (0.1 ppm). […] Aqueous solutions of the tested agents prepared to the stated concentrations/doses were sprayed onto test groups of flowers and leaves (i.e., foliage) of Arabidopsis thaliana until runoff at one day prior to heat exposure and again at four days after the beginning of heat exposure. The total duration of heat exposure was fourteen (14) days. […] The seed pods (i.e. siliques), filled with developed seeds (siliques >7 mm long and/or >1 mm wide and/or bearing seeds), were counted just prior to the beginning of the experiment, and again after fourteen (14) days of heat exposure treatments.
# field corn = assay: Field corn yield trials, Ohio, cytokinin with low potassium; details: potassium ½ lb. to 1 lb. per acre with cytokinin (X-Cyte) 1 pint per acre; unreplicated field trials over three years
# Source text: In this example, the effect of the plant growth regulator/hormone, cytokinin, applied together with low concentrations of potassium, was observed. The cytokinin that was field-applied was X-Cyte, as previously disclosed. In these unreplicated field trials, conducted in Ohio over a three year period, potassium at ½ lb. to 1 lb. per acre and cytokinin at 1 pint per acre were applied to field corn. The average increase in yield attained by applying potassium, in addition to cytokinin, was approximately fifteen (15) bushels per acre.
# [2] = EXPT 1, stage V10, variety B25DC25 R80, drip
# [3] = EXPT 1, stage V16, variety B25DC25 R80, drip
# [4] = EXPT 2, stage V10, variety Asgrow 7573, dry land
# [5] = EXPT 3, stage V7, variety H2684162, dry land
# [6] = EXPT 3, stage V10, variety H2684162, dry land
# [7] = EXPT 3, stage V13, variety H2684162, dry land
# [8] = EXPT 3, stage V16, variety H2684162, dry land
compound,measurement,setting,value
c1coc(CNc2ncnc3[nH]cnc23)c1 [kinetin],lima bean yields,[1],increased significantly
same,"1,000 Kernel wt g",field-grown corn crops; [2],298 g
same,Yield Bu/acre,field-grown corn crops; [2],259 Bu/acre
same,"1,000 Kernel wt g",field-grown corn crops; [3],298 g
same,Yield Bu/acre,field-grown corn crops; [3],311 Bu/acre
same,"1,000 Kernel wt g",field-grown corn crops; [4],244 g
same,Yield Bu/acre,field-grown corn crops; [4],149 Bu/acre
same,"1,000 Kernel wt g",field-grown corn crops; [5],295 g
same,Yield Bu/acre,field-grown corn crops; [5],212 Bu/acre
same,"1,000 Kernel wt g",field-grown corn crops; [6],296 g
same,Yield Bu/acre,field-grown corn crops; [6],211 Bu/acre
same,"1,000 Kernel wt g",field-grown corn crops; [7],299 g
same,Yield Bu/acre,field-grown corn crops; [7],208 Bu/acre
same,"1,000 Kernel wt g",field-grown corn crops; [8],296 g
same,Yield Bu/acre,field-grown corn crops; [8],207 Bu/acre
same,yield versus untreated control,"field-grown corn crops; all treatments (stages V7 to V16, drip and dryland)",enhanced yield in a highly significant fashion
same,seed size versus untreated control,field-grown corn crops; dryland conditions (no added water or irrigation),increased seed size in a highly significant fashion
same,"number of seeds (i.e., siliques)","Arabidopsis thaliana; 100 μg/l (0.1 ppm) sprayed on foliage 1 day before and 4 days after start of heat, 14 days at 33-36 degrees Celsius days",increased number of seeds
[K+] [potassium],average increase in yield by applying potassium in addition to cytokinin,field corn,~15 bushels per acre
OC[C@H]1O[C@@](CO)(O[C@H]2O[C@H](CO)[C@@H](O)[C@H](O)[C@H]2O)[C@@H](O)[C@@H]1O [sucrose],sugar/photosynthate deficiency (plant autophagy),"Arabidopsis thaliana; sucrose solutions of 20 mM and 100 mM sprayed on foliage, 14 days heat exposure",alleviated the sugar/photosynthate deficiency
